For 30 compounds, IC50 results are on record in US8440830B2, “Tetrahydro-fused pyridines as histone deacetylase inhibitors” (4SC AG, priority 2007, dated 2013).

The structures appear in SMILES notation.

This assay has as its system A549 NSCLC cells. The experiment in a line: Cellular cytotoxicity assay (Alamar Blue), A549. The class given is cell-based. The following applies: Homo sapiens, 72 h, upper end given as ≧100, read-out: IC50 (μM), cytotoxicity towards A549 NSCLC cells. A digest of the protocol: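 Cells were dosed 24 h after seeding with semi-log compound dilutions in quadruplicate, then incubated 72 h at 37 °C, 5% CO2. Viability read by Resazurin reduction (4 h, fluorescence 544/590 nm) relative to untreated 0.5% DMSO controls; IC50 by non-linear regression.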

In general, IC50 refers to the concentration that inhibits the measured activity by half. As to `CCCCCNC(=NC#N)N1CCc2nc(C(=O)Nc3ccccc3N)sc2C1` [Example 121, N-(2-aminophenyl)-5-[(cyanoimino)(pentylamino)methyl]-4,5,6,7-tetrahydro[1,3]thiazolo[5,4-c]pyridine-2-carboxamide], the IC50 was not below 0.2 µM.
For `COc1ccc(N)c(NC(=O)c2nc3c(s2)CN(C(=Nc2ccccc2)NC#N)CC3)c1` [Example 123, N-(2-amino-5-methoxyphenyl)-5-[(cyanoamino)(phenylimino)methyl]-4,5,6,7-tetrahydro[1,3]thiazolo[5,4-c]pyridine-2-carboxamide] the value was not below 0.2 µM.
For `COc1ccc(N=C(NC#N)N2CCc3nc(C(=O)Nc4cc(OC)ccc4N)sc3C2)cc1` [Example 124, N-(2-amino-5-methoxyphenyl)-5-{(cyanoamino)[(4-methoxyphenyl)imino]-methyl}-4,5,6,7-tetrahydro[1,3]thiazolo[5,4-c]pyridine-2-carboxamide] the value was not below 0.2 µM.
For `COc1ccc(N=C(NC#N)N2CCc3nc(C(=O)Nc4cc(C(C)C)ccc4N)sc3C2)cc1` [Example 125, N-(2-amino-5-isopropylphenyl)-5-{(cyanoamino)[(4-methoxyphenyl)-imino]methyl}-4,5,6,7-tetrahydro[1,3]thiazolo[5,4-c]pyridine-2-carboxamide] the value was not below 0.2 µM; for `CC(=Nc1ccccc1)N1CCc2nc(C(=O)Nc3ccccc3N)sc2C1` [Example 126, N-(2-aminophenyl)-5-[N-phenylethanimidoyl]-4,5,6,7-tetrahydro[1,3]thiazolo[5,4-c]pyridine-2-carboxamide], not below 0.2 µM.
For `COc1ccc(N=C(C)N2CCc3nc(C(=O)Nc4ccccc4N)sc3C2)cc1OC` [Example 127, N-(2-aminophenyl)-5-[N-(3,4-dimethoxyphenyl)ethanimidoyl]-4,5,6,7 tetrahydro[1,3]thiazolo[5,4-c]pyridine-2-carboxamide], the IC50 is not below 0.2 µM.
For `COc1ccc(N=C(C)N2CCc3nc(C(=O)Nc4ccccc4N)sc3C2)cc1` [Example 128, N-(2-aminophenyl)-5-[N-(4-methoxyphenyl)ethanimidoyl]-4,5,6,7-tetrahydro[1,3]thiazolo[5,4-c]pyridine-2-carboxamide] the value was not below 0.2 µM; for `COc1ccc(N)c(NC(=O)c2nc3c(s2)CN(C(C)=Nc2ccccc2)CC3)c1` [Example 129, N-(2-amino-5-methoxyphenyl)-5-[N-phenylethanimidoyl]-4,5,6,7-tetrahydro[1,3]thiazolo[5,4-c]pyridine-2-carboxamide], not below 0.2 µM.
Regarding `COc1ccc(N=C(C)N2CCc3nc(C(=O)Nc4cc(OC)ccc4N)sc3C2)cc1` [Example 130, N-(2-amino-5-methoxyphenyl)-5-[N-(4-methoxyphenyl)ethanimidoyl]-4,5,6,7-tetrahydro[1,3]thiazolo[5,4-c]pyridine-2-carboxamide], the IC50 is not below 0.2 µM.
For `COc1ccc(N)c(NC(=O)c2nc3c(s2)CN(C(C)=Nc2ccc(OC)c(OC)c2)CC3)c1` [Example 131, N-(2-amino-5-methoxyphenyl)-5-[N-(3,4-dimethoxyphenyl)ethanimidoyl]-4,5,6,7-tetrahydro[1,3]thiazolo[5,4-c]pyridine-2-carboxamide] the value was not below 0.2 µM; for `COc1ccc(N=C(C)N2CCc3nc(C(=O)Nc4cc(C(C)C)ccc4N)sc3C2)cc1` [Example 132, N-(2-amino-5-isopropylphenyl)-5-[N-(4-methoxyphenyl)ethanimidoyl]-4,5,6,7-tetrahydro[1,3]thiazolo[5,4-c]pyridine-2-carboxamide], not below 0.2 µM.
For `COc1ccc(N=C(C)N2CCc3nc(C(=O)Nc4cc(C(C)C)ccc4N)sc3C2)cc1OC` [Example 133, N-(2-amino-5-isopropylphenyl)-5-[N-(3,4-dimethoxyphenyl)ethanimidoyl]-4,5,6,7-tetrahydro[1,3]thiazolo[5,4-c]pyridine-2-carboxamide] the value was not below 0.2 µM; for `CC(=Nc1ccc(N(C)C)cc1)N1CCc2nc(C(=O)Nc3ccccc3N)sc2C1` [Example 134, N-(2-aminophenyl)-5-{N-[4-(dimethylamino)phenyl]ethanimidoyl}-4,5,6,7-tetrahydro[1,3]thiazolo[5,4-c]pyridine-2-carboxamide], not below 0.2 µM; for `CC(=Nc1ccccc1)N1CCc2nc(C(=O)Nc3cc(C(C)C)ccc3N)sc2C1` [Example 135, N-(2-amino-5-isopropylphenyl)-5-[N-phenylethanimidoyl]-4,5,6,7-tetrahydro[1,3]thiazolo[5,4-c]pyridine-2-carboxamide], not below 0.2 µM.
For `Nc1ccccc1NC(=O)c1nc2c(s1)CN(C(=C[N+](=O)[O-])Nc1ccccc1)CC2` [Example 136, N-(2-aminophenyl)-5-[1-anilino-2-nitroyinyl]-4,5,6,7-tetrahydro[1,3]thiazolo[5,4-c]pyridine-2-carboxamide], the IC50 is not below 0.2 µM.
Under `COc1ccc(NC(=C[N+](=O)[O-])N2CCc3nc(C(=O)Nc4ccccc4N)sc3C2)cc1` [Example 137, N-(2-aminophenyl)-5-{1-[(4-methoxyphenyl)amino]-2-nitroyinyl}-4,5,6,7-tetrahydro[1,3]thiazolo[5,4-c]pyridine-2-carboxamide] stands not below 0.2 µM; under `CCCCNC(=C[N+](=O)[O-])N1CCc2nc(C(=O)Nc3ccccc3N)sc2C1` [Example 138, N-(2-aminophenyl)-5-[1-(butylamino)-2-nitrovinyl]-4,5,6,7-tetrahydro[1,3]thiazolo[5,4-c]pyridine-2-carboxamide], not below 0.2 µM.
For `CC(C)c1ccc(NC(=C[N+](=O)[O-])N2CCc3nc(C(=O)Nc4ccccc4N)sc3C2)cc1` [Example 139, N-(2-aminophenyl)-5-{1-[(4-isopropylphenyl)amino]-2-nitrovinyl}-4,5,6,7-tetrahydro[1,3]thiazolo[5,4-c]pyridine-2-carboxamide] the value was not below 0.2 µM; for `CN(C)c1ccc(NC(=C[N+](=O)[O-])N2CCc3nc(C(=O)Nc4ccccc4N)sc3C2)cc1` [Example 140, N-(2-aminophenyl)-5-[1-{[4-(dimethylamino)phenyl]amino}-2-nitrovinyl]-4,5,6,7-tetrahydro[1,3]thiazolo[5,4-c]pyridine-2-carboxamide], not below 0.2 µM.
For `COc1ccc(NC(=C[N+](=O)[O-])N2CCc3nc(C(=O)Nc4ccccc4N)sc3C2)cc1OC` [Example 141, N-(2-aminophenyl)-5-{1-[(3,4-dimethoxyphenyl)amino]-2-nitrovinyl}-4,5,6,7-tetrahydro[1,3]thiazolo[5,4-c]pyridine-2-carboxamide] the value was not below 0.2 µM; for `COc1ccc(NC(=C[N+](=O)[O-])N2CCc3nc(C(=O)Nc4cc(OC)ccc4N)sc3C2)cc1` [Example 142, N-(2-amino-5-methoxyphenyl)-5-{1-[(4-methoxyphenyl)amino]-2-nitrovinyl}-4,5,6,7-tetrahydro[1,3]thiazolo[5,4-c]pyridine-2-carboxamide], not below 0.2 µM.
As to `COc1ccc(N)c(NC(=O)c2nc3c(s2)CN(C(=C[N+](=O)[O-])Nc2ccc(C(C)C)cc2)CC3)c1` [Example 143, N-(2-amino-5-methoxyphenyl)-5-{1-[(4-isopropylphenyl)amino]-2-nitrovinyl}-4,5,6,7-tetrahydro[1,3]thiazolo[5,4-c]pyridine-2-carboxamide], the 50% inhibitory concentration (IC50) was not below 0.2 µM.
For `COc1ccc(N)c(NC(=O)c2nc3c(s2)CN(C(=C[N+](=O)[O-])Nc2ccc(N(C)C)cc2)CC3)c1` [Example 144, N-(2-amino-5-methoxyphenyl)-5-[1-{[4-(dimethylamino)phenyl]amino}-2-nitrovinyl]-4,5,6,7-tetrahydro[1,3]thiazolo[5,4-c]pyridine-2-carboxamide] the value was not below 0.2 µM; for `CC(C)c1ccc(N)c(NC(=O)c2nc3c(s2)CN(C(=C[N+](=O)[O-])Nc2ccccc2)CC3)c1` [Example 145, N-(2-amino-5-isopropylphenyl)-5-[1-anilino-2-nitrovinyl]-4,5,6,7-tetrahydro[1,3]thiazolo[5,4-c]pyridine-2-carboxamide], not below 0.2 µM.
Under `COc1ccc(NC(=C[N+](=O)[O-])N2CCc3nc(C(=O)Nc4cc(C(C)C)ccc4N)sc3C2)cc1` [Example 146, N-[2-amino-5-(1-methylethyl)phenyl]-5-{1-[(4-methoxyphenyl)amino]-2-nitroethenyl}-4,5,6,7-tetrahydro[1,3]thiazolo[5,4-c]pyridine-2-carboxamide] stands not below 0.2 µM; under `CC(C)c1ccc(N)c(NC(=O)c2nc3c(s2)CN(C(=C[N+](=O)[O-])Nc2ccc(N(C)C)cc2)CC3)c1` [Example 147, N-(2-amino-5-isopropylphenyl)-5-[1-{[4-(dimethylamino)phenyl]amino}-2-nitrovinyl]-4,5,6,7-tetrahydro[1,3]thiazolo[5,4-c]pyridine-2-carboxamide], not below 0.2 µM; under `CC(C)c1ccc(NC(=C[N+](=O)[O-])N2CCc3nc(C(=O)Nc4cc(C(C)C)ccc4N)sc3C2)cc1` [Example 148, N-(2-amino-5-isopropylphenyl)-5-{1-[(4-isopropylphenyl)amino]-2-nitrovinyl}-4,5,6,7-tetrahydro[1,3]thiazolo[5,4-c]pyridine-2-carboxamide], not below 0.2 µM.
Under `COc1ccc(N)c(NC(=O)c2nc3c(s2)CN(C(=C[N+](=O)[O-])Nc2ccc(F)cc2)CC3)c1` [Example 149, N-(2-amino-5-methoxyphenyl)-5-{1-[(4-fluorophenyl)amino]-2-nitrovinyl}-4,5,6,7-tetrahydro[1,3]thiazolo[5,4-c]pyridine-2-carboxamide] stands not below 0.2 µM; under `Nc1ccccc1NC(=O)c1nc2c(s1)CN(S(=O)(=O)Cc1ccccc1)CC2` [Example 151, N-(2-aminophenyl)-5-(benzylsulfonyl)-4,5,6,7-tetrahydro[1,3]thiazolo[5,4-c]pyridine-2-carboxamide], not below 0.2 µM; under `CC(=O)Nc1ccc(S(=O)(=O)N2CCc3nc(C(=O)Nc4ccccc4N)sc3C2)cc1` [Example 155, 5-[(4-acetamidophenyl)sulfonyl]-N-(2-aminophenyl)-4,5,6,7-tetrahydro[1,3]thiazolo[5,4-c]pyridine-2-carboxamide], not below 0.2 µM.
